Data published in BigSolDB 2.1.

NC(CO)(CO)CO
solubility (mole fraction)
Conditions	293.2 K	298.2 K	303.2 K	308.2 K	313.2 K
in n-propanol	0.0038	0.005	0.0063	0.0072	0.0088
in water	0.0831	0.092	0.101	0.11	0.123
